According to patent US8367086B1, “Process and product for inhibiting or preventing bacterial infections” (S.S. Steiner, Inc., priority 2004, dated 2013):
Positions of bridges follow the written chain, without caps; N, C: chain ends. Non-standard residues stand in square brackets, D forms with d. Residues, ends and D or L forms follow the SMILES beside them. *: point of attachment. Ileψ(thiazoline)Cys = CC[C@H](C)[C@H](N)C1=N[C@H](C(=O)*)CS1; dOrn = NCCC[C@@H](N)C(=O)O

Experiments:
Format in all cases: cell-based
[1] = test system: Staphlococcus saprophyticus; assay: paper disc diffusion susceptibility (Kirby-Bauer) method; details: for change of zone of inhibition when lupulone was added: Experiment 1, 0.2 μg/ml β-resin versus antibiotic alone; for zone of inhibition, Experiment 1 Control / zone of inhibition, Experiment 2 Control: antibiotic disc alone; for zone of inhibition, Experiment 1 Control / zone of inhibition, Experiment 2 Control / zone of inhibition, Experiment 1 0.2 μg/ml β-resin / zone of inhibition, Experiment 2 0.2 μg/ml β-resin: 24 hours; for zone of inhibition, Experiment 1 0.2 μg/ml β-resin / zone of inhibition, Experiment 2 0.2 μg/ml β-resin: antibiotic disc with 0.2 μg/ml β-resin in the agar; for zone of inhibition, Xanthohumol Avg / zone of inhibition, Xanthohumol Expt #1 / zone of inhibition, Xanthohumol Expt #2 / zone of inhibition, β-acid Avg / zone of inhibition, β-acid Exp #1: S. saprophyticus
From the text: (§1) The first test method to be applied was the paper disc diffusion susceptibility method. In this method a filter paper disc impregnated with a chemical is placed on agar, and the chemical will diffuse from the disc into the agar. If an organism is placed on the agar, it will not grow in the area around the disc if it is susceptible to the chemical. This area of no growth around the disc is known as the zone of inhibition. This disc diffusion method for antibiotic susceptibility is known as the Kirby-Bauer method. In testing the effectiveness of various antibiotics, all factors, e.g., the agar utilized, the depth of the agar, the amount of organism used, and incubation conditions, are maintained constant for the various organisms and antibiotics being tested. […] The size of the zone of inhibition of the particular antimicrobial substance may also be influenced by the diffusion capability of that substance.
(§2) In performing the disc diffusion method tests, a bacterial suspension having an inoculum density of approximately 1×10^8 CFU/ml (colony forming units) was added to 10 ml trypticase soy agar at 46° C. It was mixed thoroughly by vortexing and then poured into a plastic Petri dish. After hardening of the agar, filter paper discs (φ7 mm.) made from Whatman filter paper No. 1 that had been impregnated by the manufacturer, Becton Dickinson, Inc., with the suitable antibiotic, were placed on the agar. In this series of tests the ability of each antibiotic per se to control the growth of the bacteria was measured.
(§3) Another series of agar containing Petri dishes was then prepared using the same bacteria and density thereof as had been prepared for the prior test series. However, here hop compounds were also present in the agar. The hop extract, either lupulone, humulone or xanthohumol, was dissolved in ethanol. While certain of the hop components are only slightly soluble in water, they are very soluble in ethanol. An ethanol control was prepared in the same way.
(§4) The size of the inhibition zones was measured to the nearest mm.
(§5) The concentration of β-acid and xanthohumol is set forth in μg/ml. The zone of inhibition was measured in centimeters. […]

B. megaterium = assay: paper disc diffusion susceptibility method
From the text: as §1, §2, §3, §4, §5

S. salivarius = assay: paper disc diffusion susceptibility method
From the text: as §1, §2, §3, §4, §5

B. subtilis = assay: paper disc diffusion susceptibility method
From the text: as §1, §2, §3, §4, §5

[2] = ciprofloxacin 5 μg on disc, xanthohumol 0 μg/ml
[3] = ciprofloxacin 5 μg on disc, xanthohumol 3 μg/ml
[4] = ciprofloxacin 5 μg on disc, xanthohumol 10 μg/ml
[5] = tobramycin 10 μg on disc, xanthohumol 0 μg/ml
[6] = tobramycin 10 μg on disc, xanthohumol 3 μg/ml
[7] = tobramycin 10 μg on disc, β-acid 0 μg/ml
[8] = tobramycin 10 μg on disc, β-acid 3 μg/ml
[9] = tobramycin 10 μg on disc, xanthohumol 10 μg/ml
[10] = tobramycin 10 μg on disc, β-acid 30 μg/ml

In the case of CC[C@H](C)[C@H](N)C1=N[C@H](C(=O)N[C@@H](CC(C)C)C(=O)N[C@H](CCC(=O)O)C(=O)N[C@H](C(=O)N[C@H]2CCCCNC(=O)[C@H](CC(N)=O)NC(=O)[C@@H](CC(=O)O)NC(=O)[C@H](Cc3cnc[nH]3)NC(=O)[C@@H](Cc3ccccc3)NC(=O)[C@H]([C@@H](C)CC)NC(=O)[C@@H](CCCN)NC2=O)[C@@H](C)CC)CS1 [BACITRACIN, bacitracin] ({Ileψ(thiazoline)Cys}-L[dE]IK[dOrn]I[dF]H[dD]N; lactam 4-C), the “change of zone of inhibition when lupulone was added” value (“change of zone of inhibition” below) [1] was “remained constant”, the “zone of inhibition, Experiment 1 Control” value [1] was 0 mm and the “zone of inhibition, Experiment 2 Control” value [1] was 0 mm. For the same molecule, the “zone of inhibition, Experiment 1 0.2 μg/ml β-resin” value [1] was 0 mm and the “zone of inhibition, Experiment 2 0.2 μg/ml β-resin” value [1] was 0 mm.
In the case of O=C(N[C@H](CO)[C@H](O)c1ccc([N+](=O)[O-])cc1)C(Cl)Cl [CHLORAMPHENICOL, chloramphenicol], the “change of zone of inhibition” value [1] was “decline”, the “zone of inhibition, Experiment 1 Control” value [1] was 29 mm and the “zone of inhibition, Experiment 2 Control” value [1] was 25 mm. For the same molecule, the “zone of inhibition, Experiment 1 0.2 μg/ml β-resin” value [1] was 27 mm and the “zone of inhibition, Experiment 2 0.2 μg/ml β-resin” value [1] was 25 mm.
In the case of CC[C@H]1OC(=O)[C@H](C)[C@@H](O[C@H]2C[C@@](C)(OC)[C@@H](O)[C@H](C)O2)[C@H](C)[C@@H](O[C@@H]2O[C@H](C)C[C@H](N(C)C)[C@H]2O)[C@](C)(O)C[C@@H](C)C(=O)[C@H](C)[C@@H](O)[C@]1(C)O [ERYTHROMYCIN, erythromycin], the “change of zone of inhibition” value [1] was “remained constant”, the “zone of inhibition, Experiment 1 Control” value [1] was 23 mm and the “zone of inhibition, Experiment 2 Control” value [1] was 23 mm. For the same molecule, the “zone of inhibition, Experiment 1 0.2 μg/ml β-resin” value [1] was 25 mm and the “zone of inhibition, Experiment 2 0.2 μg/ml β-resin” value [1] was 23 mm.
With O=C(O)c1cn(C2CC2)c2cc(N3CCNCC3)c(F)cc2c1=O [ciprofloxacin, 1-cyclopropyl-6-fluoro-1,4-dihyro-4-oxo-7-(1-piperaznyl)-3-quinolinecarboxylic acid] the “zone of inhibition, Xanthohumol Avg” value [1, 2] was 0.95 centimeters, the “zone of inhibition, Xanthohumol Expt #1” value [1, 2] was 0.9 centimeters and the “zone of inhibition, Xanthohumol Expt #2” value [1, 2] was 1.0 centimeters. The “zone of inhibition, Xanthohumol Avg” value [1, 3] was 1.5 centimeters, the “zone of inhibition, Xanthohumol Expt #1” value [1, 3] was 1.3 centimeters and the “zone of inhibition, Xanthohumol Expt #2” value [1, 3] was 1.7 centimeters. For the same molecule, the “zone of inhibition, Xanthohumol Avg” value (B. megaterium; [2]) was 0.75 centimeters, the “zone of inhibition, Xanthohumol Expt #1” value (B. megaterium; [2]) was 0.8 centimeters and the “zone of inhibition, Xanthohumol Expt #2” value (B. megaterium; [2]) was 0.7 centimeters. The “zone of inhibition, Xanthohumol Avg” value (B. megaterium; [3]) was 1.75 centimeters, the “zone of inhibition, Xanthohumol Expt #1” value (B. megaterium; [3]) was 1.6 centimeters and the “zone of inhibition, Xanthohumol Expt #2” value (B. megaterium; [3]) was 1.9 centimeters. The “zone of inhibition, Xanthohumol Avg” value (S. salivarius; [2]) was 0.8 centimeters, the “zone of inhibition, Xanthohumol Expt #1” value (S. salivarius; [2]) was 0.8 centimeters and the “zone of inhibition, Xanthohumol Expt #2” value (S. salivarius; [2]) was 0.8 centimeters. The “zone of inhibition, Xanthohumol Avg” value (S. salivarius; [4]) was 2.0 centimeters, the “zone of inhibition, Xanthohumol Expt #1” value (S. salivarius; [4]) was 1.9 centimeters and the “zone of inhibition, Xanthohumol Expt #2” value (S. salivarius; [4]) was 2.1 centimeters. For the same molecule, the “zone of inhibition, Xanthohumol Avg” value (B. subtilis; [2]) was 1.0 centimeters, the “zone of inhibition, Xanthohumol Expt #1” value (B. subtilis; [2]) was 1.1 centimeters and the “zone of inhibition, Xanthohumol Expt #2” value (B. subtilis; [2]) was 0.9 centimeters. The “zone of inhibition, Xanthohumol Avg” value (B. subtilis; [3]) was 1.85 centimeters, the “zone of inhibition, Xanthohumol Expt #1” value (B. subtilis; [3]) was 2.0 centimeters and the “zone of inhibition, Xanthohumol Expt #2” value (B. subtilis; [3]) was 1.7 centimeters.
For NC[C@H]1O[C@H](O[C@H]2[C@H](O)[C@@H](O[C@H]3O[C@H](CO)[C@@H](O)[C@H](N)[C@H]3O)[C@H](N)C[C@@H]2N)[C@H](N)C[C@@H]1O [tobramycin], the “zone of inhibition, Xanthohumol Avg” value [1, 5] was 0.95 centimeters, the “zone of inhibition, Xanthohumol Expt #1” value [1, 5] was 0.9 centimeters and the “zone of inhibition, Xanthohumol Expt #2” value [1, 5] was 1.0 centimeters. The “zone of inhibition, Xanthohumol Avg” value [1, 6] was 1.5 centimeters, the “zone of inhibition, Xanthohumol Expt #1” value [1, 6] was 1.5 centimeters and the “zone of inhibition, Xanthohumol Expt #2” value [1, 6] was 1.5 centimeters. For the same molecule, the “zone of inhibition, β-acid Avg” value [1, 7] was 0.9 centimeters, the “zone of inhibition, β-acid Exp #1” value [1, 7] was 0.9 centimeters and the “zone of inhibition, β-acid Avg” value [1, 8] was 1.6 centimeters. The “zone of inhibition, β-acid Exp #1” value [1, 8] was 1.6 centimeters, the “zone of inhibition, Xanthohumol Avg” value (B. megaterium; [5]) was 0.7 centimeters and the “zone of inhibition, Xanthohumol Expt #1” value (B. megaterium; [5]) was 0.8 centimeters. For the same molecule, the “zone of inhibition, Xanthohumol Expt #2” value (B. megaterium; [5]) was 0.6 centimeters, the “zone of inhibition, Xanthohumol Avg” value (B. megaterium; [6]) was 1.05 centimeters and the “zone of inhibition, Xanthohumol Expt #1” value (B. megaterium; [6]) was 1.1 centimeters. For the same molecule, the “zone of inhibition, Xanthohumol Expt #2” value (B. megaterium; [6]) was 1.0 centimeters, the “zone of inhibition, β-acid Avg” value (B. megaterium; [7]) was 0.7 centimeters and the “zone of inhibition, β-acid Exp #1” value (B. megaterium; [7]) was 0.8 centimeters. The “zone of inhibition, β-acid Exp #2” value (B. megaterium; [7]) was 0.6 centimeters, the “zone of inhibition, β-acid Avg” value (B. megaterium; [8]) was 0.95 centimeters and the “zone of inhibition, β-acid Exp #1” value (B. megaterium; [8]) was 1.1 centimeters. For the same molecule, the “zone of inhibition, β-acid Exp #2” value (B. megaterium; [8]) was 0.8 centimeters, the “zone of inhibition, Xanthohumol Avg” value (S. salivarius; [5]) was 0.55 centimeters and the “zone of inhibition, Xanthohumol Expt #1” value (S. salivarius; [5]) was 0.6 centimeters. For the same molecule, the “zone of inhibition, Xanthohumol Expt #2” value (S. salivarius; [5]) was 0.5 centimeters, the “zone of inhibition, Xanthohumol Avg” value (S. salivarius; [9]) was 1.35 centimeters and the “zone of inhibition, Xanthohumol Expt #1” value (S. salivarius; [9]) was 1.4 centimeters. The “zone of inhibition, Xanthohumol Expt #2” value (S. salivarius; [9]) was 1.3 centimeters, the “zone of inhibition, β-acid Avg” value (S. salivarius; [7]) was 0.55 centimeters and the “zone of inhibition, β-acid Exp #1” value (S. salivarius; [7]) was 0.6 centimeters. The “zone of inhibition, β-acid Exp #2” value (S. salivarius; [7]) was 0.5 centimeters, the “zone of inhibition, β-acid Avg” value (S. salivarius; [10]) was 0.65 centimeters and the “zone of inhibition, β-acid Exp #1” value (S. salivarius; [10]) was 0.7 centimeters. The “zone of inhibition, β-acid Exp #2” value (S. salivarius; [10]) was 0.6 centimeters, the “zone of inhibition, Xanthohumol Avg” value (B. subtilis; [5]) was 1.0 centimeters and the “zone of inhibition, Xanthohumol Expt #1” value (B. subtilis; [5]) was 1.1 centimeters. For the same molecule, the “zone of inhibition, Xanthohumol Expt #2” value (B. subtilis; [5]) was 0.9 centimeters, the “zone of inhibition, Xanthohumol Avg” value (B. subtilis; [6]) was 1.5 centimeters and the “zone of inhibition, Xanthohumol Expt #1” value (B. subtilis; [6]) was 1.6 centimeters. The “zone of inhibition, Xanthohumol Expt #2” value (B. subtilis; [6]) was 1.4 centimeters, the “zone of inhibition, β-acid Avg” value (B. subtilis; [7]) was 1.0 centimeters and the “zone of inhibition, β-acid Exp #1” value (B. subtilis; [7]) was 1.1 centimeters. For the same molecule, the “zone of inhibition, β-acid Exp #2” value (B. subtilis; [7]) was 0.9 centimeters, the “zone of inhibition, β-acid Avg” value (B. subtilis; [8]) was 1.3 centimeters and the “zone of inhibition, β-acid Exp #1” value (B. subtilis; [8]) was 1.4 centimeters. The “zone of inhibition, β-acid Exp #2” value (B. subtilis; [8]) was 1.2 centimeters.
In the case of penicillin, the “change of zone of inhibition” value [1] was “decline”, the “zone of inhibition, Experiment 1 Control” value [1] was 41 mm and the “zone of inhibition, Experiment 2 Control” value [1] was 37 mm. The “zone of inhibition, Experiment 1 0.2 μg/ml β-resin” value [1] was 39 mm and the “zone of inhibition, Experiment 2 0.2 μg/ml β-resin” value [1] was 35 mm.
[H]/N=C(/N)N[C@H]1[C@H](O)[C@@H](O)[C@H](O[C@@H]2O[C@@H](C)[C@](O)(C=O)[C@H]2O[C@@H]2O[C@@H](CO)[C@H](O)[C@@H](O)[C@@H]2NC)[C@@H](N/C(N)=N\[H])[C@@H]1O [STREPTOMYCIN, streptomycin] was tested, and the “change of zone of inhibition” value [1] was “remained constant”, the “zone of inhibition, Experiment 1 Control” value [1] was 15 mm and the “zone of inhibition, Experiment 2 Control” value [1] was 15 mm. For the same molecule, the “zone of inhibition, Experiment 1 0.2 μg/ml β-resin” value [1] was 15 mm and the “zone of inhibition, Experiment 2 0.2 μg/ml β-resin” value [1] was 14 mm.
In the case of neomycin, the “zone of inhibition, Experiment 1 Control” value [1] was 23 mm, the “zone of inhibition, Experiment 2 Control” value [1] was 26 mm and the “zone of inhibition, Experiment 1 0.2 μg/ml β-resin” value [1] was 25 mm. For the same molecule, the “zone of inhibition, Experiment 2 0.2 μg/ml β-resin” value [1] was 24 mm.
